Assay results published in patent publication US12048700B2 (Merck Patent GmbH, priority 2017, dated 2024).
Like-named read-outs stand apart in the source and are kept apart here.

Legend:
[1] = Water content of the sample before DVS (TG-FTIR mass loss or Karl Fischer titration)
Description: Thermogravimetric measurements were carried out with a Netzsch Thermo-Microbalance TG 209 coupled to a Bruker FTIR Spectrometer Vector 22 (sample pans with a pinhole, N2 atmosphere, heating rate 10 K/min).
A sample of crystalline monosodium salt according to at least one of the previous examples is investigated by thermogravimetry coupled with infrared spectroscopy (TG-FTIR). Thermogravimetric measurements were done with a sample mass of about 6 mg. […] The same sample is now examined by dynamic vapor sorption analysis (DVS). About 20 mg of sample are placed put into an aluminum sample pan. Humidity change rates of 5% per hour were used. […] The sample was placed on an aluminum holder on top of a microbalance and allowed to equilibrate at 50% RH before starting the pre-defined humidity program in the following way: • (1) 2 hours at 50% relative humidity • (2) 50→0% relative humidity (5%/hour); 10 hours at 0% relative humidity • (3) 0→75% relative humidity (5%/hour); 5 hours at 75% relative humidity • (4) 75→0% relative humidity (5%/hour); 10 hours at 0% relative humidity • (5) 0→50% relative humidity (5%/hour); 2 hours at 50% relative humidity
A sample of crystalline calcium salt of MTHF is examined by Karl Fischer titration to evaluate the water content. […]

[2] = 40° C./75% rh
[3] = DVS; for removal of water on drying (in words): ten hours of nitrogen purge at room temperature
Description: DVS measurements are typically performed at 25° C. with an SPS11-100n “Sorptions Prüfsystem” from ProUmid (formerly “Projekt Messtechnik”), August-Nagel-Str. 23, 89079 Ulm (Germany).

[4] = 25° C./60% rh
[5] = room temperature; purified/de-ionized water; vigorously agitated and briefly sonicated
Description: 2.535 ml of purified/de-ionized water (for instance water for chromatography) is added to the solid using an adjustable volumetric pipette. The mixture is vigorously agitated at room temperature and briefly sonicated.

[6] = room temperature; suspension stirred 30 minutes with excess solid

| SMILES | mass loss at 200° C. (TG-FTIR), essentially the water content ([1]; after drying in air at room temperature, sample mass about 6 mg) | 5-methyl-(6S)-tetrahydrofolic acid content ([2]; 0 months) | 5-methyl-(6S)-tetrahydrofolic acid content ([2]; 3 months) | 5-methyl-(6S)-tetrahydrofolic acid content ([2]; 6 months) | 5-methyl-(6S)-tetrahydrofolic acid content ([2]; 9 months) | 5-methyl-(6S)-tetrahydrofolic acid content ([2]; 12 months) | hygroscopicity compared with the calcium salt (in words) ([3]; relative humidity 20% to 75%) | removal of water on drying (in words) ([3]; listed as crystalline monosodium salt, monosodium salt) | removal of water on drying (in words) ([3]; listed as crystalline sodium salt of 5-methyl-(6S)-tetrahydrofolic acid, monosodium salt) | 5-methyl-(6S)-tetrahydrofolic acid content ([4]; 0 months) | 5-methyl-(6S)-tetrahydrofolic acid content ([4]; 3 months) | 5-methyl-(6S)-tetrahydrofolic acid content ([4]; 6 months) | 5-methyl-(6S)-tetrahydrofolic acid content ([4]; 9 months) | 5-methyl-(6S)-tetrahydrofolic acid content ([4]; 12 months) | water content (Karl Fischer titration) ([1]; sample before DVS) | kinetic solubility in water [5] | removal of water on drying (in words) [3] | solubility in water [6] |
| --- | --- | --- | --- | --- | --- | --- | --- | --- | --- | --- | --- | --- | --- | --- | --- | --- | --- | --- |
| CN1c2c(nc(N)[nH]c2=O)NC[C@@H]1CNc1ccc(C(=O)N[C@@H](CCC(=O)[O-])C(=O)O)cc1.[Na+] [5-methyl-(6S)-tetrahydrofolic acid monosodium salt] | about 1.3% | 94.7 % w/w | 92.7 % w/w | (81.8)^1 % w/w | 94.8 % w/w | 92.9 % w/w | less hygroscopic | all the water of the sample is essentially removed | water can essentially be removed | 94.7 % w/w | 93.0 % w/w | 94.2 % w/w | 95.6 % w/w | 94.1 % w/w |  |  |  |  |
| CN1c2c([nH]c(N)nc2=O)NC[C@@H]1CNc1ccc(C(=O)N[C@@H](CCC(=O)[O-])C(=O)[O-])cc1.[Ca+2] [calcium salt of 5-methyl-(6S)-tetrahydrofolic acid] |  | 80.7 % w/w | 78.5 % w/w | 78.0 % w/w | 78.8 % w/w | 77.8 % w/w |  |  |  | 80.7 % w/w | 79.0 % w/w | 77.7 % w/w | 78.5 % w/w | 77.9 % w/w | 12.4% | smaller than 10 mg per 1 ml of water | less than half of the water can be removed | 7100 µg/mL |
